Experimental data taken from patent publication US10294202B2, “Pyrrolidinones as herbicides” (FMC Corporation, priority 2013, dated 2019).

Legend:
wheat = assay: Test A pre-/postemergence herbicide test; assay type: in vivo, Triticum aestivum; details: Postemergence
How it was run: (§1)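 Scoring was visual, relative to untreated controls, on a 0–100 scale after about 10 greenhouse days. Preemergence treatment used a directed soil spray over seeded loam/sand; postemergence treatment targeted one- to two-leaf plants of 2–10 cm.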

pigweed = assay: Test C pre-/postemergence herbicide test; assay type: in vivo, Amaranthus retroflexus
How it was run: (§2)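 Response scores range from 0, meaning no effect, to 100, meaning complete control, assigned visually by comparison with controls roughly two weeks (13 to 15 days) after spraying. Applications were made preemergence to seeded loam–sand soil and postemergence to 1- to 4-leaf plants.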

blackgrass = assay: Test C pre-/postemergence herbicide test; assay type: in vivo, Alopecurus myosuroides
How it was run: as §2

barnyardgrass [1] = assay: Test C pre-/postemergence herbicide test; assay type: in vivo, Echinochloa crus-galli
How it was run: as §2

oilseed rape = assay: Test C pre-/postemergence herbicide test; assay type: in vivo, Brassica napus
How it was run: as §2

lambsquarters = assay: Test C pre-/postemergence herbicide test; assay type: in vivo, Chenopodium album
How it was run: as §2

ducksalad = assay: Test B flooded paddy test; assay type: in vivo, Heteranthera limosa; details: 500 g ai/ha, Flood; scale of 0 to 100 where 0 is no effect and 100 is complete control
How it was run: (§3)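 Scored visually 0–100 (0 no effect, 100 complete control) versus controls after 13 to 15 greenhouse days. Treatment: compound added to paddy water kept 3 cm above soil, on 2-leaf-stage plants.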

nutsedge, yellow = assay: Test C pre-/postemergence herbicide test; assay type: in vivo, Cyperus esculentus
How it was run: as §2

barnyardgrass [2] = assay: Test B flooded paddy test; assay type: in vivo, Echinochloa crus-galli; details: 500 g ai/ha, Flood; scale of 0 to 100 where 0 is no effect and 100 is complete control
How it was run: as §3

rice = assay: Test B flooded paddy test; assay type: in vivo, Oryza sativa; details: 500 g ai/ha, Flood; scale of 0 to 100 where 0 is no effect and 100 is complete control
How it was run: as §3

crabgrass, large = assay: Test C pre-/postemergence herbicide test; assay type: in vivo, Digitaria sanguinalis
How it was run: as §2

giant foxtail = assay: Test A pre-/postemergence herbicide test; assay type: in vivo, Setaria faberii
How it was run: as §1

[3] = Postemergence, 31 g ai/ha, scale 0 to 100 (0 no effect, 100 complete control)
[4] = Postemergence, 62 g ai/ha, scale 0 (no effect) to 100 (complete control)
[5] = Postemergence, 125 g ai/ha, scale 0 to 100 (0 no effect, 100 complete control)
[6] = Postemergence, 250 g ai/ha, scale 0 to 100 (0 no effect, 100 complete control)
[7] = Preemergence, 31 g ai/ha, scale 0 to 100, 0 is no effect and 100 is complete control
[8] = Preemergence, 62 g ai/ha, scale 0 to 100 (0 no effect, 100 complete control)
[9] = Preemergence, 125 g ai/ha, scale 0 to 100

O=C1NCC(c2cccc(C(F)(F)F)c2)C1C(=O)Nc1ccccc1Cl (centres unmarked) [Compound 312]
30: Plant response rating (scale of 0 to 100), Oilseed Rape (oilseed rape; Preemergence, 250 g ai/ha)
0: Plant response rating, Blackgrass (blackgrass; [3]) | Plant response rating, Blackgrass (blackgrass; [4]) | Plant response rating, Blackgrass (blackgrass; [5]) | Plant response rating, Blackgrass (blackgrass; [6]) | Plant response rating, Oilseed Rape (oilseed rape; [3]) | Plant response rating, Oilseed Rape (oilseed rape; [4]) | Plant response rating, Oilseed Rape (oilseed rape; [5]) | Plant response rating, Oilseed Rape (oilseed rape; [6]) | Oilseed Rape plant response rating (oilseed rape; [7]) | Oilseed Rape plant response rating (oilseed rape; [8]) | Lambsquarters plant response rating (lambsquarters; [7]) | Lambsquarters plant response rating (lambsquarters; [8]) | Plant response rating, Nutsedge, Yellow (nutsedge, yellow; [3]) | Plant response rating, Nutsedge, Yellow (nutsedge, yellow; [4]) | Plant response rating, Nutsedge, Yellow (nutsedge, yellow; [5]) | Plant response rating, Nutsedge, Yellow (nutsedge, yellow; [6]) | Nutsedge, Yellow plant response rating (nutsedge, yellow; [7]) | Plant response rating, Nutsedge, Yellow (nutsedge, yellow; [9]) | Plant response rating (scale of 0 to 100), Nutsedge, Yellow (nutsedge, yellow; Preemergence, 250 g ai/ha)
100: Plant response rating, Ducksalad (ducksalad)
60: Plant response rating (scale of 0 to 100), Lambsquarters (lambsquarters; Preemergence, 250 g ai/ha)
20: Plant response rating, Pigweed (pigweed; [4]) | Plant response rating, Rice (rice)
85: Barnyardgrass plant response rating (barnyardgrass [1]; [7])
15: Plant response rating, Oilseed Rape (oilseed rape; [9])
10: Plant response rating, Pigweed (pigweed; [3])
70: Plant response rating, Wheat (wheat; 500 g ai/ha, 0 to 100 scale (0 no effect, 100 complete control)) | Plant response rating, Blackgrass (blackgrass; [9]) | Plant response rating, Barnyardgrass (barnyardgrass [1]; [4]) | Plant response rating, Barnyardgrass (barnyardgrass [1]; [5])
55: Plant response rating (scale of 0 to 100), Pigweed (pigweed; Preemergence, 250 g ai/ha) | Plant response rating, Lambsquarters (lambsquarters; [6])
65: Plant response rating, Lambsquarters (lambsquarters; [3])
95: Plant response rating (scale of 0 to 100; 0 is no effect, 100 is complete control), Barnyardgrass (barnyardgrass [1]; Preemergence, 250 g ai/ha) | Plant response rating, Lambsquarters (lambsquarters; [5]) | Crabgrass, Large plant response rating (crabgrass, large; [8]) | Plant response rating, Crabgrass, Large (crabgrass, large; [9]) | Plant response rating (scale of 0 to 100), Crabgrass, Large (crabgrass, large; Preemergence, 250 g ai/ha)
25: Plant response rating, Pigweed (pigweed; [5]) | Pigweed plant response rating (pigweed; [7]) | Plant response rating, Crabgrass, Large (crabgrass, large; [3])
45: Plant response rating, Pigweed (pigweed; [6]) | Plant response rating, Pigweed (pigweed; [9]) | Blackgrass plant response rating (blackgrass; [8])
40: Plant response rating, Wheat (wheat; 125 g ai/ha, visual rating on 0 to 100 scale (0 no effect, 100 complete control), approx. 10 days) | Pigweed plant response rating (pigweed; [8]) | Blackgrass plant response rating (blackgrass; [7]) | Plant response rating, Barnyardgrass (barnyardgrass [1]; [3])
75: Plant response rating (scale of 0 to 100), Blackgrass (blackgrass; Preemergence, 250 g ai/ha) | Plant response rating, Barnyardgrass (barnyardgrass [1]; [6]) | Plant response rating, Lambsquarters (lambsquarters; [4]) | Plant response rating, Barnyardgrass (barnyardgrass [2])
50: Plant response rating, Lambsquarters (lambsquarters; [9]) | Plant response rating, Crabgrass, Large (crabgrass, large; [4])
80: Plant response rating, Crabgrass, Large (crabgrass, large; [5]) | Plant response rating, Foxtail, Giant (giant foxtail; Postemergence, 125 g ai/ha, visual rating on 0 to 100 scale (0 no effect, 100 complete control), approx. 10 days)
35: Nutsedge, Yellow plant response rating (nutsedge, yellow; [8])
90: Barnyardgrass plant response rating (barnyardgrass [1]; [8]) | Plant response rating, Barnyardgrass (barnyardgrass [1]; Preemergence, 125 g ai/ha, scale 0 to 100 (0 no effect, 100 complete control)) | Plant response rating, Crabgrass, Large (crabgrass, large; [6]) | Crabgrass, Large plant response rating (crabgrass, large; [7]) | Plant response rating, Foxtail, Giant (giant foxtail; Postemergence, 500 g ai/ha, 0 to 100 scale (0 no effect, 100 complete control)) | Plant response rating, Foxtail, Giant (giant foxtail; Preemergence, 125 g ai/ha, 0 to 100 scale where 0 is no effect and 100 is complete control) | Foxtail, Giant plant response rating (giant foxtail; Preemergence, 500 g ai/ha, visual rating on 0 to 100 scale (0 no effect, 100 complete control))
